The record followed here is patent US9650339B2, “Inhibitors of histone demethylases” (Gilead Sciences, Inc., priority 2013, dated 2017).

One experiment has as its target KDM6A (UTX) (Homo sapiens, UniProt O15550). As to the kind of experiment: Histone lysine demethylase AlphaLISA assay, KDM6A. The format is biochemical. The settings on record: read-out: KDM6A HDME Inhibition IC50. In a few lines:
(§1)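 Biotinylated methylated H3 peptides (K9, K4, K27 or K36 marks) served as substrate, with 25 μM L-Asc and 10 μM α-KG. Enzymes were preincubated 10 min, then exposed to compounds (3% DMSO solutions) 10 min; product detected by AlphaLISA acceptor and streptavidin donor beads at room temperature in dark.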

The next experiment concerns the target T1, KDM4C (Homo sapiens, UniProt Q9H3R0).
T1 construct: Full length; host or cells: U2OS
T1 sequence (Q9H3R0 1-1056): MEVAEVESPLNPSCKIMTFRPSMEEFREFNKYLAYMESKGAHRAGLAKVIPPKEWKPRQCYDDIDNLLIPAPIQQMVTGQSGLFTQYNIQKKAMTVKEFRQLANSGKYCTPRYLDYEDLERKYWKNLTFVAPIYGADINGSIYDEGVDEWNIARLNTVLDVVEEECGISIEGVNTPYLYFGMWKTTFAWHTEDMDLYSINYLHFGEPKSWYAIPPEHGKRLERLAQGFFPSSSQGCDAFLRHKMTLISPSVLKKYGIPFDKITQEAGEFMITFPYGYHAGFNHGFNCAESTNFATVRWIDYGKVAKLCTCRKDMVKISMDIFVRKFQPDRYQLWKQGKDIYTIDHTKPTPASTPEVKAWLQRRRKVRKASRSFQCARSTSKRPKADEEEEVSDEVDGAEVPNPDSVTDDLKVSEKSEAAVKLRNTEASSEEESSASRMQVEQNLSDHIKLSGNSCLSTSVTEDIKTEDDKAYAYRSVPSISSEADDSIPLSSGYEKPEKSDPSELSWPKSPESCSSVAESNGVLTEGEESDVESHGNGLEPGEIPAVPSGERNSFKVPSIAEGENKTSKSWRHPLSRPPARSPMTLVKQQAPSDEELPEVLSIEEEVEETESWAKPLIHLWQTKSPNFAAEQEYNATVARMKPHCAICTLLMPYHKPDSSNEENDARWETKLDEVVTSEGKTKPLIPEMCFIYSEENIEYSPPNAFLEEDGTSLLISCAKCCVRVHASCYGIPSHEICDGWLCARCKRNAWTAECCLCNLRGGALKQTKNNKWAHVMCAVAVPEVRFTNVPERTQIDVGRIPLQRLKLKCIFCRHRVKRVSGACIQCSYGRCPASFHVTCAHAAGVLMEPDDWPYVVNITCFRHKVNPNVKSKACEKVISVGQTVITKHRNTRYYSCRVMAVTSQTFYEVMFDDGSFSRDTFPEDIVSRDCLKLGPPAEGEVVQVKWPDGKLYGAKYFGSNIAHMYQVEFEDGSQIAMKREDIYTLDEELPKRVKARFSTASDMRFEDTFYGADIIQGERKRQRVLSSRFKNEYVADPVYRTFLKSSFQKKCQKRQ
Briefly: Histone lysine demethylase immunofluorescence assay, U2OS cells transfected with KDM4C. The settings on record: U2OS cells transfected with pCMVHA KDM4C; mark detected H3K9me3; 20 hours. The format is cell-based. The gist of the method:
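U2OS cells were transiently transfected with HA-tagged demethylase and reseeded after 6 h into compound-containing DMEM/10% FBS for 20 h. Cells were fixed in formaldehyde and immunostained for HA and the relevant histone methyl mark, then imaged. IC50 is based on mean mark staining in HA+ transfected cells.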

A further experiment concerns the target T2, KDM4A (JMJD2A) (Homo sapiens, UniProt O75164).
T2 construct: 1-350; purchased BPS Bioscience, US; host or cells: E. coli
T2 sequence (O75164 1-350): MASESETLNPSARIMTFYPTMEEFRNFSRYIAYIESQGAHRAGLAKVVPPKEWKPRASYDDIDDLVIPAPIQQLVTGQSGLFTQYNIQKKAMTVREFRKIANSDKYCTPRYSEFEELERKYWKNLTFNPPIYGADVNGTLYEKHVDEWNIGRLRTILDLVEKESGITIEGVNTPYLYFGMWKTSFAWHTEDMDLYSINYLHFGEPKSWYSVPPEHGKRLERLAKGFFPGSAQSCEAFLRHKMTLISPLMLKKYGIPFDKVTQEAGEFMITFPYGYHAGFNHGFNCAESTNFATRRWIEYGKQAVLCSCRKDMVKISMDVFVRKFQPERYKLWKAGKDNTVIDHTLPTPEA
As to the kind of experiment: Histone lysine demethylase AlphaLISA assay, KDM4A. The format is biochemical. The settings on record: read-out: KDM4A HDME Inhibition IC50. In a few lines:
as §1
(In Alpha technology, singlet oxygen from a donor bead excites a nearby acceptor bead.)

Chain of KDM6A (UTX) (O15550 919-1401): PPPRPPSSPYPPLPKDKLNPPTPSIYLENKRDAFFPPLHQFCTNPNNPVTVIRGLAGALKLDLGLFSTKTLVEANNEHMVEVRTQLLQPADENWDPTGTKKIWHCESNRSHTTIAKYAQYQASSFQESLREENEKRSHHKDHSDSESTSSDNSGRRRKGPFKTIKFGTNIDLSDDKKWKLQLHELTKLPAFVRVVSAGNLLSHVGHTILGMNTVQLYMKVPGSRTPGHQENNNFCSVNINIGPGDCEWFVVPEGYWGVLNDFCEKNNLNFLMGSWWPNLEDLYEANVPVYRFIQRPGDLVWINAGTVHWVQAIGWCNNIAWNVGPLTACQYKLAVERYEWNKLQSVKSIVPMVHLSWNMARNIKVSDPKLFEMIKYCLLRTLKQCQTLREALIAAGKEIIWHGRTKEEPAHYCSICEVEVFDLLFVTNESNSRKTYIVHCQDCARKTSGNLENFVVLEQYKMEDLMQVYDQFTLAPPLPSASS

A word on the IC50: it is the concentration at which inhibition is half-maximal. As to `CCN(CC)CCCCNCc1cc(C2NCCCN2C)ccn1` (centres unmarked) [Compound 68, [4-(diethylamino)butyl]({[4-(1-methyl-1,3-diazinan-2-yl)pyridin-2-yl]methyl})amine], the IC50 at KDM6A (UTX) was more than 2.5 µM; on KDM4C, 0.25 to 2.5 µM.
In the case of `CN(C)CCNCc1ccnc(CNCCCN(C)Cc2ccccc2)c1` [Compound 18, benzyl[3-({[4-({[2-(dimethylamino)ethyl]-amino}methyl)pyridin-2-yl]methyl}-amino)propyl]-methylamine], the IC50 on KDM4A (JMJD2A) and at KDM6A (UTX) was more than 2.5 µM each time.
Consider `COc1ccccc1CN1CCC(NC(=O)CNCc2cc(CNC3CC3)ccn2)CC1` [Compound 20, 2-[({4-[(cyclopropylamino)-methyl]pyridin-2-yl}methyl)amino]-N-{1-[(2-methoxyphenyl)methyl]-piperidin-4-yl}acetamide], for which the IC50 at KDM4A (JMJD2A) was less than 0.25 µM; on KDM4C, more than 2.5 µM.
`O=Cc1ccnc(CNCC(=O)NC2CCN(Cc3ccccc3)C2)c1` (centres unmarked) [Compound 113, N-(1-benzylpyrrolidin-3-yl)-2-{[(4-formylpyridin-2-yl)methyl]amino}-acetamide]: the 50% inhibitory concentration (IC50) at KDM4A (JMJD2A) was 0.25 to 2.5 µM; at KDM6A (UTX), more than 2.5 µM; on KDM4C, more than 2.5 µM.
`O=Cc1ccnc(CNCCCCN(Cc2ccccc2)C2CC2)c1` [Compound 109, 2-[({4-[benzyl-(cyclopropyl)amino]-butyl}amino)methyl]-pyridine-4-carbaldehyde]: the half-inhibitory concentration (IC50) on KDM4A (JMJD2A), on KDM6A (UTX) and on KDM4C was more than 2.5 µM throughout.
For the compound `CN(C)CCCCNCc1cc(CN)ccn1` [Compound 2, [2-({[4-(dimethylamino)butyl]-amino}methyl)pyridin-4-yl]methanamine], the IC50 is more than 2.5 µM on KDM4A (JMJD2A), more than 2.5 µM on KDM6A (UTX) and 0.25 to 2.5 µM at KDM4C.
On to `COC(=O)CNCc1cc(/C=N/C2CC2)ccn1` [Compound 59, methyl 2-[({4-[N-cyclopropyl-carboximidoyl]pyridin-2-yl}methyl)amino]-acetate], for which the concentration for half-maximal inhibition (IC50) at KDM4A (JMJD2A) was 0.25 to 2.5 µM; on KDM6A (UTX), more than 2.5 µM; against KDM4C, more than 2.5 µM.
As to `CCN(CCN(C)C)C(=O)CN(Cc1cc(CNC(=O)C(F)(F)F)ccn1)C(=O)C(F)(F)F` [Compound 26, N-[(2-{[N-({[2-(dimethylamino)ethyl]-(ethyl)carbamoyl}-methyl)-2,2,2-trifluoroacetamido]-methyl}pyridin-4-yl)methyl]-2,2,2-trifIuoroacetamide], the values for the IC50 at KDM6A (UTX) and against KDM4C were more than 2.5 µM and 0.25 to 2.5 µM, respectively.
As for `COCCNCc1ccnc(CNCCCN(C)Cc2ccccc2)c1` [Compound 19, benzyl(3-{[(4-{[(2-methoxyethyl)amino]-methyl}pyridin-2-yl)methyl]amino}-propyl)methylamine], the IC50 on KDM4A (JMJD2A), at KDM6A (UTX) and against KDM4C was more than 2.5 µM in each case.
